Experimental findings from US8859601B2, “Substituted benzyl and phenylsulfonyl triazolones, and use thereof” (Bayer Intellectual Property GmbH, priority 2008, dated 2014) are described below.

One assay has as its target T1, human V2 receptor (Homo sapiens, UniProt P30518).
T1 construct: Gα16 (possible fusion partner; the text leaves open whether it was fused or expressed separately); expressed in transfected cells; host or cells: CHO K1 (ATCC), constitutively expressing a modified aequorin and co-transfected with Gα16
Kind of assay: Cellular in vitro assay for determining the vasopressin receptor activity (aequorin luminescence, antagonism of [Arg8]-vasopressin), hV2. The class given is cell-based. The settings on record: CHO cell line transfected with the human V2 receptor (and Gα16); agonist [Arg8]-vasopressin. From the text:
(§1) B-1. Cellular In Vitro Assay for Determining the Vasopressin Receptor Activity
(§2) The identification of agonists and antagonists of the V1a and V2 vasopressin receptors from humans and rats and also the quantification of the activity of the substances described here took place using recombinant cell lines. These cells derive originally from a hamster ovary epithelial cell (Chinese Hamster Ovary, CHO K1, ATCC: American Type Culture Collection, Manassas, Va. 20108, USA). The test cell lines constitutively express a modified form of the calcium-sensitive photoprotein aequorin, which, after reconstitution with the cofactor coelenterazine, emits light when there are increases in the free calcium concentration (Rizzuto R., Simpson A. W., Brini M., Pozzan T.; Nature 358 (1992) 325-327). In addition, the cells are stably transfected with the human or rat V1a or V2 receptors. In the case of the Gs-coupling V2 receptors, the cells are stably transfected with a further gene, which codes for the promiscuous Gα16 protein (Amatruda T. T., Steele D. A., Slepak V. Z., Simon M. I., Proc. Nat. Acad. Sci. USA 88 (1991), 5587-5591), either independently or as a fusion gene. The resulting vasopressin receptor test cells react to stimulation of the recombinantly expressed vasopressin receptors by intracellular release of calcium ions, which can be quantified by the resulting aequorin luminescence using a suitable luminometer (Milligan G., Marshall F., Rees S., Trends in Pharmaco. Sci. 17 (1996) 235-237).
(§3) On the day before the assay, the cells are plated out in culture medium (DMEM, 10% FCS, 2 mM glutamine, 10 mM HEPES) in 384-well microtiter plates and kept in a cell incubator (96% humidity, 5% v/v carbon dioxide, 37° C.). On the day of the assay, the culture medium is replaced by a Tyrode solution (140 mM sodium chloride, 5 mM potassium chloride, 1 mM magnesium chloride, 2 mM calcium chloride, 20 mM glucose, 20 mM HEPES), which additionally contains the cofactor coelenterazine (50 μM), and the microtiter plate is then incubated for a further 3-4 hours. The test substances in various concentrations are placed for 10 to 20 minutes in the wells of the microtiter plate before the agonist [Arg8]-vasopressin is added, and the resulting light signal is measured immediately in the luminometer. The IC50 values are calculated using the GraphPad PRISM computer program (Version 3.02).
(§4) The table below lists representative IC50 values for the compounds of the invention on the cell line transfected with the human V1a or V2 receptor: […]

The next assay deals with T2, human V1a receptor (Homo sapiens, UniProt P37288).
T2 construct: expressed in transfected cells; host or cells: CHO K1 (ATCC), constitutively expressing a modified aequorin
As to the kind of experiment: Cellular in vitro assay for determining the vasopressin receptor activity (aequorin luminescence, antagonism of [Arg8]-vasopressin), hV1a. The class given is cell-based. The settings on record: CHO cell line transfected with the human V1a receptor; agonist [Arg8]-vasopressin.
From the text: as §1, §2, §3, §4

T2 sequence (P37288 whole entry): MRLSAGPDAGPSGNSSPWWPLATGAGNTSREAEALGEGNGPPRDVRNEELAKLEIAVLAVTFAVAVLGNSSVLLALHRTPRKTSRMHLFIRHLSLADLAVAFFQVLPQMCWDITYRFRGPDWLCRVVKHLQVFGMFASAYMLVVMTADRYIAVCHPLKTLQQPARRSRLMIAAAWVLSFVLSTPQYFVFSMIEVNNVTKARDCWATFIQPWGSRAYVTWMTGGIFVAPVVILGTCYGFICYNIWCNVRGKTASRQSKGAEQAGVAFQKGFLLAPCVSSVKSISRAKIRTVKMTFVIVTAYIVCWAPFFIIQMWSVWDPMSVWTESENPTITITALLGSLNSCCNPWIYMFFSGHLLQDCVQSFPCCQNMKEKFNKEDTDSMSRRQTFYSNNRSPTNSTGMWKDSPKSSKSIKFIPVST
T1 sequence (P30518 whole entry, the tested form may be a part): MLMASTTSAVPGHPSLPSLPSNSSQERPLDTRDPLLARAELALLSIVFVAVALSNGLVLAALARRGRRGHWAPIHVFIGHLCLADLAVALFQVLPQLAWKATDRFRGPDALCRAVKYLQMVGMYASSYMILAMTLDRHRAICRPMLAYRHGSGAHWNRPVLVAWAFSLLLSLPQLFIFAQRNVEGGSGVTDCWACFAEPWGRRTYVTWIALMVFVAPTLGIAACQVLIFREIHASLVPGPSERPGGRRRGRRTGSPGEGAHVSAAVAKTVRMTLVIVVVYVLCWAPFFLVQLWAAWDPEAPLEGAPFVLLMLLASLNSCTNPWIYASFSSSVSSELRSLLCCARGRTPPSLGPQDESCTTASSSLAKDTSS

Broadly, the IC50 is the concentration needed to halve the response being measured. Higher therefore signals weaker potency. For the molecule `C=CCn1c(-c2ccc(Cl)cc2)nn(S(=O)(=O)c2ccc(C(=O)NC(C)(C)C)cc2OC)c1=O` [Example 1, N-tert-Butyl-4-{[3-(4-chlorophenyl)-5-oxo-4-prop-2-en-1-yl-4,5-dihydro-1H-1,2,4-triazol-1-yl]sulphonyl}-3-methoxybenzenecarboxamide], the IC50 at human V2 receptor was determined as 3 nM; at human V1a receptor it was 5500 nM.

On to `COc1cc(C(=O)NC(C)(C)C)ccc1S(=O)(=O)n1nc(-c2ccc(Cl)cc2)n(C2CC2)c1=O` [Example 2], for which the IC50 on human V2 receptor turned out to be 3 nM; at human V1a receptor, 3700 nM.

Consider `COc1cc(C(=O)NC(C)(C)C)ccc1S(=O)(=O)n1nc(OC(C)C)n(C2CC2)c1=O` [Example 3], for which the values for the IC50 at human V2 receptor and on human V1a receptor were 13 nM and > 25000 nM, respectively.

Turning to `COc1cc(C(=O)NC(C)(C)C)ccc1S(=O)(=O)n1nc(N(C)C)n(C2CC2)c1=O` [Example 7], the IC50 at human V2 receptor was 7 nM; on human V1a receptor it was > 25000 nM.

With `COc1ccc(C(C)=O)cc1S(=O)(=O)n1nc(-c2ccc(Cl)cc2)n(C2CC2)c1=O` [Example 13], the results for the IC50 on human V2 receptor and on human V1a receptor were 290 nM and 3500 nM, respectively.

In the case of `COc1cc(C(=O)NC(C)(C)C)ccc1S(=O)(=O)n1nc(-c2ccc(Cl)cc2)[nH]c1=O` [Example 14, N-tert-Butyl-4-{[3-(4-chlorophenyl)-5-oxo-4,5-dihydro-1H-1,2,4-triazol-1-yl]sulphonyl}-3-methoxybenzenecarboxamide], the IC50 on human V2 receptor was 9 nM; on human V1a receptor it was > 25000 nM.

Regarding `CC(C)(C)NC(=O)c1ccc(S(=O)(=O)n2nc(-c3ccc(Cl)cc3)n(C3CC3)c2=O)cc1` [Example 17, N-tert-Butyl-4-{[3-(4-chlorophenyl)-4-cyclopropyl-5-oxo-4,5-dihydro-1H-1,2,4-triazol-1-yl]sulphonyl}benzenecarboxamide], the IC50 at human V2 receptor was determined as 4 nM; on human V1a receptor, 7100 nM.

As for `COc1cc(C(=O)NC(C)(C)C)ccc1Cn1nc(-c2ccc(Cl)cc2)n(C2CC2)c1=O` [Example 20, N-tert-Butyl-4-{[3-(4-chlorophenyl)-4-cyclopropyl-5-oxo-4,5-dihydro-1H-1,2,4-triazol-1-yl]methyl}-3-methoxybenzenecarboxamide], the IC50 on human V2 receptor came to 4 nM; on human V1a receptor, 15200 nM.

Take `COc1cc(Cn2nc(-c3ccc(Cl)cc3)n(C3CC3)c2=O)ccc1C(=O)NC(C)(C)C` [Example 22, N-tert-Butyl-4-{[3-(4-chlorophenyl)-4-cyclopropyl-5-oxo-4,5-dihydro-1H-1,2,4-triazol-1-yl]methyl}-2-methoxybenzamide]: the IC50 turned out to be 220 nM at human V2 receptor and 870 nM on human V1a receptor.

Consider `CC(C)(C)NC(=O)c1ccc(Cn2nc(-c3ccc(Cl)cc3)n(C3CC3)c2=O)c(Cl)c1` [Example 27, N-tert-Butyl-3-chloro-4-{[3-(4-chlorophenyl)-4-cyclopropyl-5-oxo-4,5-dihydro-1H-1,2,4-triazol-1-yl]methyl}benzamide], for which the IC50 at human V2 receptor turned out to be 27 nM; at human V1a receptor, 4200 nM.
